Read-outs that look alike come from different tables or passages of the source.
Experiments:
[1] = tested on: human granulocytes; test: Inhibition of ABA-induced phagocytosis of fluorescent beads; format: cell-based
Method: Human granulocytes, after ON incubation in complete DMEM/F12, were resuspended at 1x10^6 cells/100 µl in HBSS.
For the experiment, fluorescent polystyrene (carboxylate-modified polystyrene) beads were used, of 1 µm of diameter (Sigma-Aldrich) A volume of 100 µl of cellular suspension was subdivided into eppendorf, in which a 10 minutes long preincubation was carried out with 20 µM ABA, either alone, or together with increasing concentrations of compound prepared according to example 1.
After the end of the preincubation, the beads were added for 5, 10 and 30 minutes. For each experimental point, 2.5 x 10^5 beads were used.
At the end of the incubations, the cells were collected by centrifugation (200xg for 10 seconds), were washed with 1 ml of HBSS at 0 °C and were centrifuged once again at 200xg for 10 seconds. The supernatant was discarded and the cells were resuspended in 350 µl of HBSS and added to 96-well plates of white colour (100 µl per well).
The increase in fluorescence was measured with Fluostar OPTIMA fluorometer (λexc: 485; λemis: 520).
The experiment was carried out three times in triplicate.
Human grnulocytes were preincubated for 10 minutes at 20 °C with 20 µM ABA, either alone or in the presence of compound prepared according to example 1, at various concentrations. In order to evaluate the phagocytic capability of granulocytes, fluorescent beads were added and, after 15 and 30 minutes, the fluorescence absorbed by the cells was determined as described in Materials and Methods The results were expressed as the average of the results obtained from three independent experiments, from which the background value, obtained from the control, had been subtracted (TABLE 5). TABLE 5. Inhibition of phagocitosis, in human granulocytes stimulated with ABA, by compound prepared according to example 1.

[2] = tested on: human monocytes; test: Inhibition of ABA-induced PGE2 production in monocytes (EIA); format: cell-based; conditions: 6 h
Method: Monocytes, 25 x 10^6/Petri in complete RPMI, were incubated for 6 h with 100 nM ABA either alone, or in the presence of compound prepared according to example 1, at a concentration of 1 µM. At the end of the incubation, the substrate was centrifuged at 17,000xg for 5 minutes and the concentration of PGE2 was quantitated by using the kit: PGE2 monoclonal EIA kit (Cayman Chemical Co.), following the instructions suppled by the manufacturer.
(§1) The cells were lysed in 200 µl of deionized water in order to quantitate total proteins by the Bradford method (Bradford, M. M., 1976), after thre preliminary generation of a reference standard curve, obtained with different concentrations of bovine serum albumin. The spectrophotometric measurements were carried out at wavelength of 595 nm.
The experiment was carried out three times in sextuplicate.
The results were expressed as the average of the results from three independent experiments, as referred to control value. […] TABLE 7. Inhibition of PGE2 production, in human monocytes stimulated with ABA, by compound prepared according to example 1

[3] = tested on: human granulocytes; test: Inhibition of ABA-induced PGE2 production in granulocytes (EIA); format: cell-based; conditions: 6 h
Method: Granulocytes, in a number of 1x10^7 per point in RPMI supplemented with 10 % of foetal calf serum (FCS), penicillin (50 units/ml) and streptomycin (50 µg/ml) (complete RPMI), were incubated for 6 h with […] either alone or in the presence compound prepared according to example 1 at a concentration of 100 nM or of 1 µM. At the end of the incubation, the substrate was centrifuged at 17,000xg for 5 minutes and the concentration of PGE2 was quantitated by using the kit: PGE2 monoclonal EIA kit (Cayman Chemical Co.), following the instructions suppled by the manufacturer.
as §1
The experiment was carried out three times in triplicate TABLE 6). TABLE 6. Inhibition of PGE2 production, in human granulocytes stimulated with ABA, by compound prepared according to example 1

[4] = Stability after extraction from H2O and HBSS (HPLC-MS); format: physicochemical; conditions: for Stability after extraction (amount found): 10 µM; for degradation: 0 vs 24 hrs
Method: Compound prepared according to example 1 was tested for stability at 10 µM concentration in deionized water, phosphate buffer (HBSS with calcium and magnesium) and human plasma for 0 and after 24 hrs at 37 °C, by carrying out the extraction as described in Materials and Methods, and subsequent HPLC-MS analysis for the analyte of interest.
For stability tests, to 2 ml of deionized water, HBSS or human plasma, the compound of example 1 (10 µM) and 5,000 cpm of [^3H]ABA were added, for the purpose of evaluating the recovery after the extraction procedure. The so prepared samples were exctracted at time 0 and after 24 hrs.
For the extraction, 8 ml was added of distilled methanol (methanol/water : 80/20 vol/vol) and the mixture was kept at -20 °C overnight.
The following day the samples were centrifuged at 800xg for 10 minutes and the supernatant was concentrated to dryness by Rotavapor. The reconstituted aqueous solution was acidified at pH 2.6 with 10 % trifluoroacetric acid (TFA) and was extracted three times with diethyl ether (diethyl ether/water: 1:1 vol/vol).
The ethereal phase was finally removed by Rotavapor and the extraxt was resuspended in 1 ml of HBSS; 8 µl of such solution was analysed by HPLC-MS, and 100 µl was used for radioactivity counting by a Packard β-counter in order to compute extraction recovery.
The HPLC-MS system used consists of an Agilent 1100 capillary chromatograph equipped with a diode array detector (DAD) and coupled with an Agilent 1100 series LC/MSD Trap mass spectometer with orthogonal electrospray source and a ionic-trap analyser.
The detection wavelength was 254 nm and the MS spectrum was recorded in negative ions mode in an m/z range of 50-300.
The amount of compound of example 1 in the extracts and supernatants was computed as the area of the peak under the extracted ion current m/z 279.3, normalized for the ionization efficiency of internal standard (hexadeuterated ABA) used for HPLC-MS analysis. Furthermore, the concentration was computed using the recovery rates obtained from the evaluation of counts per minute (cpm) of extracted [^3H]ABA.

## CC1=CC(=O)CC(C)(C)C1(O)/C=C/C(C)=C\C(=O)O (racemic) [ABA, (2Z,4E)-5-(1-hydroxy-2,6,6-trimethyl-4-oxo-2-cyclohexen-1-yl)-3-methyl-2,4-pentadienoic acid, reference compound]
[1]; ABA 20 µM alone, 15 min
  Increase in fluorescence ±SD (@ 15 min): 909±47
[1]; ABA 20 µM alone, 30 min
  Increase in fluorescence ±SD (@ 30 min): 2476±50
[2]; ABA 100 nM alone
  Relative amount of PGE2 as referred to control ± SD: 2,2±0,2

## CC(=C/C(=O)O)/C=C/C1(O)C(C)(C)CC(=O)C2OC21C (stereo not drawn) [Example 1, 2'α,3'α-dihydro-2'α,3'α-epoxyabscisic acid]
[1]; ABA 20 µM + compound 0.5 nM, 15 min
  Increase in fluorescence ±SD (@ 15 min): 210±2
[1]; ABA 20 µM + compound 0.5 nM, 30 min
  Increase in fluorescence ±SD (@ 30 min): 1423±3
[1]; ABA 20 µM + compound 10 nM, 15 min
  Increase in fluorescence ±SD (@ 15 min): 148±2
[1]; ABA 20 µM + compound 10 nM, 30 min
  Increase in fluorescence ±SD (@ 30 min): 515±10
[1]; ABA 20 µM + compound 1 µM, 15 min
  Increase in fluorescence ±SD (@ 15 min): 17
[1]; ABA 20 µM + compound 1 µM, 30 min
  Increase in fluorescence ±SD (@ 30 min): 0
[1]; Homo sapiens, 0.25 h, ABA 20 µM + compound 0.5 nM, 15 min, read-out: Inhibition % (@ 15 min)
  inhibition at 0.0005 µM: 77%
[1]; Homo sapiens, 0.25 h, ABA 20 µM + compound 10 nM, 15 min, read-out: Inhibition % (@ 15 min)
  inhibition at 0.01 µM: 84%
[1]; Homo sapiens, 0.25 h, ABA 20 µM + compound 1 µM, 15 min, read-out: Inhibition % (@ 15 min)
  inhibition at 1 µM: 98%
[1]; Homo sapiens, 0.5 h, ABA 20 µM + compound 0.5 nM, 30 min, read-out: Inhibition % (@ 30 min)
  inhibition at 0.0005 µM: 43%
[1]; Homo sapiens, 0.5 h, ABA 20 µM + compound 10 nM, 30 min, read-out: Inhibition % (@ 30 min)
  inhibition at 0.01 µM: 80%
[1]; Homo sapiens, 0.5 h, ABA 20 µM + compound 1 µM, 30 min, read-out: Inhibition % (@ 30 min)
  inhibition at 1 µM: 100%
[1]; Homo sapiens, phagocytosis induced by 20 µM ABA
  IC50: ~0.5 nM
[3]; ABA 100 nM + compound 100 nM
  inhibition at 0.1 µM: 85%
[3]; ABA 100 nM + compound 1 µM
  inhibition at 1 µM: 100%
[2]; ABA 100 nM + compound 1 µM
  Relative amount of PGE2 as referred to control ± SD: 1,0±0,1
[2]; Homo sapiens, Monocyte, ABA 100 nM + compound 1 µM
  inhibition at 1 µM: 100%
[4]; H2O, 0 hr, equals extraction yield, listed as compound of example 1
  Stability after extraction (amount found): 100%
[4]; H2O, 0 hr, equals extraction yield, listed as compound prepared according to example 1
  Stability after extraction (amount found): 100%
[4]; H2O, 24 hrs at 37 °C
  Stability after extraction (amount found): 86%
[4]; HBSS, 0 hr, equals extraction yield, listed as compound of example 1
  Stability after extraction (amount found): 76%
[4]; HBSS, 0 hr, equals extraction yield, listed as compound prepared according to example 1
  Stability after extraction (amount found): 76%
[4]; HBSS, 24 hrs at 37 °C
  Stability after extraction (amount found): 73%
[4]; in phosphate buffer
  degradation: 3%
[4]; in water
  degradation: 14%
